In patent US20030088057A1, “PEPTIDE SUBSTRATES PHOSPHORYLATED BY P21-ACTIVAGED PROTEIN KINASE STATEMENT REGARDING FEDERALLY SPONSORED REASEARCH OR DEVELOPMENT” (priority 1998, published 2003):
“Also recorded” adds a separate entry of the source. Read-outs that look alike come from different tables or passages of the source. Each block holds one substance with its values, some of them ahead of it. No end group written: not given here.

Assays:
[1] = test system: γ-PAK; assay: Rates of phosphorylation of synthetic peptides by γ-PAK; format: biochemical, rabbit; details: for substrate for γ-PAK (in words): synthetic peptides; for 32P incorporated, %: AKRASAA taken as 100%; for rate of phosphorylation compared to AKRASAA: relative to AKRASAA
Description: (§1) A. Materials. γ-PAK was purified from rabbit reticulocytes to apparent homogeneity by chromatography on DEAE-cellulose, SP-Sepharose, protamine agarose, and FPLC on Mono S and Mono Q. Histone I (type IIIS), mixed histone (type IIAS), trypsin (L-1-tosylamido-2-phenylethyl chloromethyl ketone treated), soybean trypsin inhibitor, bovine serum albumin (fatty acid free), and myelin basic protein were purchased from Sigma. Purified histones 2B and 4 were purchased from Boehringer-Mannheim. Myosin light chain from rabbit skeletal muscle was a gift from Dr. James Stull, University of Texas Southwestern Medical Center, Dallas, Tex.; rat prolactin was provided by Dr. Ameae Walker, University of California, Riverside, Calif.; and the purified catalytic subunit of cAMP-dependent protein kinase from bovine heart was a gift from Dr. William H. Fletcher, J. L. Pettis Memorial V. A. Hospital, Loma Linda, Calif. Protein kinase C was purified from bovine brain according to the procedure of Walton et al. [Walton, G. M., et al., Anal Biochem., 161:425-437 (1987)], with modifications [Venema, R. C., et al., J. Biol. Chem., 266:5298-5302 (1991)]. The clone for GST-Cdc42 was generously provided by Dr. Channing Der, University of North Carolina, Chapel Hill, N.C. Cellulose thin-layer chromatography sheets were from Kodak.
(§2) D. Phosphorylation Assays. Phosphorylation of protein substrates was carried out in 35 μL reaction mixtures containing 20 mM Tris-HCl, pH 7.4, 10 mM MgCl2, 30 mM 2-mercaptoethanol, 0.2 mM ATP (specific activity =1000 cpm/pmol), 2 μg of protein substrate, and 20 units of active γ-PAK (an enzyme unit is defined as the amount of enzyme that incorporates 1 pmol of phosphate into histone IIAS/ min at 30°. Under these conditions, phosphate incorporation was linear and initial rates of phosphorylation were measured. After incubation at 30° C. for 15 min, reactions were terminated by the addition of 5 μL of 100 mM nonlabeled ATP and sample buffer for gel electrophoresis [Hathaway, G. M., et al., Methods Enzymol., 60:495-511 (1979)]. Reaction mixtures were subjected to SDS-PAGE on 15% polyacrylamide gels followed by autoradiography. Phosphorylation was quantified by excising the protein band and counting the incorporated ^32P in a liquid scintillation counter. The specific activity of γ-PAK was 400 pmol min^−1 μg^−1 as reported previously using 0.2 mM ATP and 1 mg/mL mixed histone as substrate [Rooney, R. D., et al., (1996), supra].
(§3) Assays with peptides (I mM) were carried out with γ-PAK (1.6-5.6 units) in 25 μL reaction mixtures incubated for 30 min at 30° C. under conditions described above, except that 0.4 mg/mL of bovine serum albumin was added and the specific activity of ATP was 300-2000 cpm/pmol. Reactions were terminated with 5 μL of 100 mM ATP, and the amount of ^32p incorporated was quantitated by precipitation of 20 μL aliquots on P81 phosphocellulose paper with 75 mM H3PO4 as described previously [Bensen, E. S., et al., Biochim. Biophys. Acta, 1292:249-258 (1996)]. Peptides containing only one basic amino acid were analyzed by thin-layer electrophoresis on cellulose sheets for 2 h at 600 V with pyridine/acetic acid/water (10:100:890), pH 3.5, as solvent, as described previously [Bensen, E. S., et al., supra]. Activation of γ-PAK by autophosphorylation in the presence of Cdc42(GTPγS) was performed as previously described [Jakobi, R., et al., supra]. γ-PAK was also activated by limited digestion with trypsin as described previously [Rooney, R. D., et al., (1996), supra].
Target sequence in this assay (Q29502 249-500 limits assumed): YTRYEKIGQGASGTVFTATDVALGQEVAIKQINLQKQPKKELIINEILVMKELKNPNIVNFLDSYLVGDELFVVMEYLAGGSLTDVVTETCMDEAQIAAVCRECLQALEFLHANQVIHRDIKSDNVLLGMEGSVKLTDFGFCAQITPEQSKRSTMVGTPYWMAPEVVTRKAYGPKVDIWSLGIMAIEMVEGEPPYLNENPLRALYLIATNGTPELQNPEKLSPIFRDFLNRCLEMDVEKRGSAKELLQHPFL

[2] = biological target: T1, γ-PAK (Oryctolagus cuniculus, UniProt Q29502); assay: Phosphorylation of heptapeptides by Cdc42-activated γ-PAK with ATP(Mg) and ATP(Mn); format: biochemical, rabbit; details: γ-PAK 2.5 units, Cdc42(GTPγS)-activated; 10 mM MgCl2 or 6 mM MnCl2
T1 construct: γ-PAK was purified from rabbit reticulocytes to apparent homogeneity; from tissue; host or cells: rabbit reticulocytes (γ-PAK)
T1 sequence (Q29502 2-524 limits assumed): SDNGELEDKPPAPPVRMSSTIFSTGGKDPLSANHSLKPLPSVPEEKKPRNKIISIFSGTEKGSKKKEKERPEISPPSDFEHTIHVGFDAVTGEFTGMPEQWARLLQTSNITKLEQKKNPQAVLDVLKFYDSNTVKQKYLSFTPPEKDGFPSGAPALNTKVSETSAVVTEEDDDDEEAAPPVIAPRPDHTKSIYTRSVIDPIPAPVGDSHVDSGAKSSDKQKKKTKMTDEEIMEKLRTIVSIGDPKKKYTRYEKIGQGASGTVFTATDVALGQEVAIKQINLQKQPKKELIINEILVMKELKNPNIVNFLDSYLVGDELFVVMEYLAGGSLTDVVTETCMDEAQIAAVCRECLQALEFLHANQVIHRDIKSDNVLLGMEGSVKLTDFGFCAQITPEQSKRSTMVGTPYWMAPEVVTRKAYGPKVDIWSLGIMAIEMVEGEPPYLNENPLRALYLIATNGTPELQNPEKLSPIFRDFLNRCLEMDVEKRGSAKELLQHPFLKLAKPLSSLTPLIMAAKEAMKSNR
Experimental: Synthetic heptapeptides were used to examine the activity of γ-PAK with manganese and magnesium. The peptides were incubated with γ-PAK (2.5 units), activated by autophosphorylation in the presence of Cdc42(GTPγS) and 10 mM MgCl2 or 6 mM MnCl2 as described under Experimental Procedures.

[3] = test system: γ-PAK; assay: Kinetic parameters (Km, Vmax) for phosphorylation of synthetic peptides by γ-PAK; format: biochemical, rabbit; details: for Km: read-out: Km
Experimental: as §3
Target sequence in this assay (Q29502 249-500 limits assumed): as the sequence (Q29502 249-500 limits assumed) above

[4] = test system: PKC; assay: Rates of phosphorylation of synthetic peptides by PKC; format: biochemical, bovine; details: for 32P incorporated: PKC (3.4 units), with Ca2+ and phospholipids, 0.14 mM ATP; for 32P incorporated, %: PKC, AKRASAA taken as 100%
Description: as §1
(§4) Reactions with PKA (10.5 units) were carried out under the same conditions as with γ-PAK except that 0.14 mM ATP was used. Reactions with PKC (3.4 units) were performed as with PKA, with the addition of 0.4 mM CaCl2, phosphatidylinositol (15 μg/mL), phosphatidylserine (15 μg/ mL), and 1,2-diolein (3 μg/mL), as described [Tuazon, P. T., et al., (1989), supra]. A unit of PKA or PKC is defined as the amount of enzyme that incorporates 1 pmol of phosphate/min at 30° C. into histone IIAS or histone 1, respectively.
PKA and PKC are known to require basic amino acids on the N-terminal side of the phosphorylatable serine/ threonine. To distinguish their substrate specificities from that of γ-PAK, the relative rates of phosphorylation were determined with the synthetic peptide substrates using the conditions for γ-PAK, with the addition of Ca^2+ and phospholipids for PKC. The rates shown in Table 5 are calculated with equivalent units of enzyme; the rate of phosphorylation of the peptide AKRASAA (SEQ ID NO:6) is taken as 100% for all three enzymes. As would be expected, PKA preferentially phosphorylated the peptides that contained RR or RK at the −3 and −2 positions and with […] residues or proline at the −4 and −1 positions inhibitory. PKC recognized SKR>RKS>KKS. The most notable difference between γ-PAK and PKA or PKC is the effect of acidic residues on the susceptibility of the peptide to be phosphorylated. An acidic residue in the −1 or −4 position was beneficial for γ-PAK but was detrimental for both PKA and PKC (Table 5). […] In addition, γ-PAK could not tolerate an arginine in the −3 position when lysine was in the −2 position.

[5] = biological target: T2, PKA (Bos taurus, UniProt P00517); assay: Rates of phosphorylation of synthetic peptides by PKA; format: biochemical, bovine; details: for 32P incorporated: PKA (10.5 units), 0.14 mM ATP; for 32P incorporated, %: PKA, AKRASAA taken as 100%
T2 construct: the purified catalytic subunit of cAMP-dependent protein kinase from bovine heart was a gift; from tissue; host or cells: bovine heart (gift from Dr. William H. Fletcher)
Description: as §1, with “Myosin light chain from rabbit skeletal muscle was a gift from Dr. James Stull, University of Texas Southwestern Medical Center, Dallas, Tex.; rat prolactin was provided by Dr. Ameae Walker, University of California, Riverside, Calif.; and the purified catalytic subunit of cAMP-dependent protein kinase from bovine heart was a gift from Dr. William H. Fletcher, J. L. Pettis Memorial V. A. Hospital, Loma Linda, Calif.” left out
as §4
PKA and PKC are known to require basic amino acids on the N-terminal side of the phosphorylatable serine/ threonine. To distinguish their substrate specificities from that of γ-PAK, the relative rates of phosphorylation were determined with the synthetic peptide substrates using the conditions for γ-PAK, with the addition of Ca^2+ and phospholipids for PKC.

[6] = test system: γ-PAK; assay: Phosphorylation of protein substrates by γ-PAK; format: biochemical, rabbit; details: for substrate for γ-PAK (in words): proteins
Experimental: as §2
Target sequence in this assay (Q29502 249-524 limits assumed): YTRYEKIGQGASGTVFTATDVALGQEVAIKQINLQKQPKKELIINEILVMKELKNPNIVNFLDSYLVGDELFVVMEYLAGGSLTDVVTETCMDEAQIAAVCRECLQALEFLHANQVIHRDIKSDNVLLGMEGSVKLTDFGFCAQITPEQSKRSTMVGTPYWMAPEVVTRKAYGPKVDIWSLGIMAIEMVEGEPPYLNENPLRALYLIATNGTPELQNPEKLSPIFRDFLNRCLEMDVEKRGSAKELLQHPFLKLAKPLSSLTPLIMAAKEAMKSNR
A number of proteins were examined as substrates, and their relative rates of phosphorylation were compared (Table 6).

[7] = Cdc42(GTPγS)-activated γ-PAK, peptide 1 mM, KKRKSAA = 100
[8] = proteolytically (trypsin) activated γ-PAK, peptide 1 mM, compared to KKRKSAA = 100
[9] = proteolytically activated γ-PAK (5.6 units), peptide 1 mM, 30 min at 30° C.
[10] = Table 2, influence of basic amino acids, γ-PAK 1.6 units, ATP 0.2 mM
[11] = γ-PAK, calculated with equivalent units of enzyme
[12] = Table 3, influence of acidic amino acids
[13] = Table 4, influence of proline and glycine

Substance: AKKASAA (AKKASAA-NH2) [synthetic peptide with an amide C-terminal group]
substrate for γ-PAK (in words) [1]: poor substrates
phosphorylation using ATP(Mg) or ATP(Mn) (in words) [2]: not phosphorylated

Substance: casein
substrate for γ-PAK (in words) [6]: not substrates

Substance: cdc42: small G protein; not a substrate for γ-PAK (data not shown)
substrate for γ-PAK (in words) [6]: not substrates

Substance: protamine
32P incorporated ([6]; 2 μg protein substrate, 20 units active γ-PAK, 15 min at 30° C.): 0 pmol
substrate for γ-PAK (in words) [6]: not a good substrate; also recorded: did not serve as substrates
substrate for γ-PAK (in words) ([6]; listed as Protamine): not substrates
rel rate ([6]; relative to histone 2B = 100): 0%

More lines, main results first:

phosphorylation using ATP(Mg) or ATP(Mn) (in words) [2]: not phosphorylated
Km [3, 10]: > 5000 µM
Substance: AKAASAA (AKAASAA-NH2) [synthetic peptide with an amide C-terminal group]
rel rate (%) [1, 7]: 3%
rel rate (%) [1, 8]: 2%
32P incorporated [1, 9]: 5 pmol/min/µg
substrate for γ-PAK (in words) [1]: did not serve as substrate; also recorded: could not be phosphorylated

Vmax [3, 10]: 1.04 pmol/min
Km [3, 10]: 460 µM
Vmax [3, 12]: 11.04 pmol/min
Km [3, 12]: 460 µM
Vmax [3, 13]: 1.04 pmol/min
Km [3, 13]: 460 µM
32P incorporated [5]: 4.8 pmol/unit
32P incorporated, % [5]: 100%
Substance: AKRASAA (AKRASAA-NH2) [synthetic peptide with an amide C-terminal group]
rel rate (%) [1, 7]: 189%
rel rate (%) [1, 8]: 141%
32P incorporated [1, 9]: 426 pmol/min/µg
32P incorporated, % ([1]; γ-PAK): 100%
32P incorporated [1, 11]: 26.8 pmol/unit
32P incorporated [4]: 3.0 pmol/unit
32P incorporated, % [4]: 100%

increase of Km compared to AKRASAA [3]: ~3 fold
overall rate of phosphorylation (Vmax/Km) compared to AKRASAA [3]: 0.7 fold
Vmax [3, 12]: 2.22 pmol/min
Km [3, 12]: 1420 µM
32P incorporated [5]: 3.6 pmol/unit
32P incorporated, % [5]: 75%
Substance: AKRASEA (AKRASEA-NH2) [synthetic peptide with an amide C-terminal group]
rel rate (%) [1, 7]: 88%
rel rate (%) [1, 8]: 108%
32P incorporated [1, 9]: 326 pmol/min/µg
32P incorporated, % ([1]; γ-PAK): 68%
32P incorporated [1, 11]: 18.3 pmol/unit
rate of phosphorylation compared to AKRASAA ([1]; γ-PAK): 71%
32P incorporated [4]: 0.2 pmol/unit
32P incorporated, % [4]: 6%

increase of Km compared to AKRASAA [3]: 2 fold
overall rate of phosphorylation (Vmax/Km) compared to AKRASAA [3]: 1.3 fold
Vmax [3, 12]: 2.48 pmol/min
Km [3, 12]: 890 µM
Vmax ([3]; text summary b32): 2.48 pmol/min
32P incorporated [5]: 1.7 pmol/unit
32P incorporated, % [5]: 4%
Substance: EKRASAA (EKRASAA-NH2) [synthetic peptide with an amide C-terminal group]
rel rate (%) [1, 7]: 151%
rel rate (%) [1, 8]: 160%
32P incorporated [1, 9]: 484 pmol/min/µg
32P incorporated, % ([1]; γ-PAK): 113%
32P incorporated [1, 11]: 30.2 pmol/unit
rate of phosphorylation compared to AKRASAA ([1]; γ-PAK): 113%
32P incorporated [4]: 0.1 pmol/unit
32P incorporated, % [4]: 3%

decrease of Km compared to AKRASAA [3]: ≈ 2 fold
increase of Vmax compared to AKRASAA [3]: no effect
overall rate of phosphorylation (Vmax/Km) compared to AKRASAA [3]: 2 fold
Vmax [3, 13]: 1.10 pmol/min
Km [3, 13]: 240 µM
32P incorporated [5]: 6.9 pmol/unit
Substance: PKRASAA (PKRASAA-NH2) [synthetic peptide with an amide C-terminal group]
rel rate (%) [1, 7]: 184%
rel rate (%) [1, 8]: 209%
32P incorporated [1, 9]: 636 pmol/min/µg
32P incorporated, % ([1]; γ-PAK): 151%
32P incorporated [1, 11]: 40.5 pmol/unit
32P incorporated [4]: 8.7 pmol/unit
32P incorporated, % [4]: 264%

32P incorporated [5]: 5.4 pmol/unit
Substance: RKKKSAA (RKKKSAA-NH2) [synthetic peptide with an amide C-terminal group]
rel rate (%) [1, 7]: 3%
rel rate (%) [1, 8]: 0%
32P incorporated [1, 9]: 0 pmol/min/µg
substrate for γ-PAK (in words) [1]: poor substrates
32P incorporated, % ([1]; γ-PAK): 0%
32P incorporated [1, 11]: 0.1 pmol/unit
32P incorporated [4]: 3.1 pmol/unit
32P incorporated, % [4]: 94%
